Reference: ChEMBL document CHEMBL5257047, “Synthesis and Anti-Inflammatory Activity of the Natural Cyclooxygenase-2 Inhibitor Axinelline A and Its Analogues” (J Nat Prod, 2023)
Active and inactive are the calls of the source. The rule behind the calls is not given here.

Columns and labels:
RAW264.7 [1] = test: Inhibition of IKK phosphorylation in LPS-stimulated mouse RAW264.7 cells preincubated with compound for 1 hrs followed by LPS-stimulation and measured after 30 mins by Western blot analysis; assay type: cell-based; conditions: dose 2-30 µM, time 1.5 hrs
RAW264.7 [2] = test: Effect of NF-kappaB protein level in LPS-stimulated mouse RAW264.7 cells at 2 to 30 uM preincubated with compound for 1 hrs followed by LPS-stimulation and measured after 30 mins by Western blot analysis; assay type: functional, cell-based; conditions: dose 2-30 µM, time 1.5 hrs
RAW264.7 [3] = test: Inhibition of NF-kappaB phosphorylation in LPS-stimulated mouse RAW264.7 cells at 2 to 30 uM preincubated with compound for 1 hrs followed by LPS-stimulation and measured after 30 mins by Western blot analysis; assay type: cell-based; conditions: dose 2-30 µM, time 1.5 hrs
RAW264.7 [4] = test: Anti-inflammatory activity in mouse RAW264.7 cells assessed as decrease in LPS-induced TNF-alpha production incubated for 24 hrs by ELISA analysis; assay type: functional, cell-based; conditions: dose 2-30 µM
RAW264.7 [5] = test: Cytotoxicity against mouse RAW264.7 cells assessed as reduction in cell survival upto 50 uM incubated for 48 to 72 hrs by MTT assay; assay type: toxicity, cell-based; conditions: raw264.7, 50 µM, time 48-72 hrs
RAW264.7 [6] = test: Anti-inflammatory activity in mouse RAW264.7 cells assessed as decrease in LPS-induced IL-6 production incubated for 24 hrs by ELISA analysis; assay type: functional, cell-based; conditions: dose 2-30 µM
RAW264.7 [7] = test: Anti-inflammatory activity in mouse RAW264.7 cells assessed as decrease in LPS-induced IL-1beta production incubated for 24 hrs by ELISA analysis; assay type: functional, cell-based; conditions: dose 2-30 µM
[8] = target: T1, Prostaglandin G/H synthase 1 (Ovis aries, UniProt P05979); test: Inhibition of ovine COX-1 using arachidonic acid as substrate preincubated with compound for 5 mins followed by substrate addition and measured after 2 mins by fluorescence spectrum analysis
T1 sequence (P05979 whole entry): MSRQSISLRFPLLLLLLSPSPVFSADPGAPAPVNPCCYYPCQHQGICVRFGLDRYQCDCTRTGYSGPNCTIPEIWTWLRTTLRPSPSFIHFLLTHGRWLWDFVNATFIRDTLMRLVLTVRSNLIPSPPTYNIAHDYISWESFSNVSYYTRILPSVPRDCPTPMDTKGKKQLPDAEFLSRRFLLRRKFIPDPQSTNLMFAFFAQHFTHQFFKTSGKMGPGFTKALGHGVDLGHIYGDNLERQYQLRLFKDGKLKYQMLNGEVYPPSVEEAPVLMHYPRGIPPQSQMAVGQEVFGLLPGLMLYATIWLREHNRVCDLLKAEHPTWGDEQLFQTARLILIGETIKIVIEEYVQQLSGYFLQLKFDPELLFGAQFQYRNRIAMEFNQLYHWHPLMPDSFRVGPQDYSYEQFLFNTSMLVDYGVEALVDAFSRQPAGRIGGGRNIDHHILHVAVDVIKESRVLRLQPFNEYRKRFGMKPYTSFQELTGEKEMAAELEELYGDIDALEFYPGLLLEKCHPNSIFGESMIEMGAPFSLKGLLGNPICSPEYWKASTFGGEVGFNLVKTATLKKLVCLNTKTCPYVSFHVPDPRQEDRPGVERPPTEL

L02 [9] = test: Cytotoxicity against human L02 cells assessed as reduction in cell survival upto 50 uM incubated for 48 to 72 hrs by MTT assay; assay type: toxicity, cell-based; conditions: l02, 50 µM, time 48-72 hrs
[10] = target: T2, Prostaglandin G/H synthase 2 (Homo sapiens, UniProt P35354); test: Inhibition of recombinant human COX-2 using arachidonic acid as substrate preincubated with compound for 5 mins followed by substrate addition and measured after 2 mins by fluorescence spectrum analysis
T2 sequence (P35354 whole entry): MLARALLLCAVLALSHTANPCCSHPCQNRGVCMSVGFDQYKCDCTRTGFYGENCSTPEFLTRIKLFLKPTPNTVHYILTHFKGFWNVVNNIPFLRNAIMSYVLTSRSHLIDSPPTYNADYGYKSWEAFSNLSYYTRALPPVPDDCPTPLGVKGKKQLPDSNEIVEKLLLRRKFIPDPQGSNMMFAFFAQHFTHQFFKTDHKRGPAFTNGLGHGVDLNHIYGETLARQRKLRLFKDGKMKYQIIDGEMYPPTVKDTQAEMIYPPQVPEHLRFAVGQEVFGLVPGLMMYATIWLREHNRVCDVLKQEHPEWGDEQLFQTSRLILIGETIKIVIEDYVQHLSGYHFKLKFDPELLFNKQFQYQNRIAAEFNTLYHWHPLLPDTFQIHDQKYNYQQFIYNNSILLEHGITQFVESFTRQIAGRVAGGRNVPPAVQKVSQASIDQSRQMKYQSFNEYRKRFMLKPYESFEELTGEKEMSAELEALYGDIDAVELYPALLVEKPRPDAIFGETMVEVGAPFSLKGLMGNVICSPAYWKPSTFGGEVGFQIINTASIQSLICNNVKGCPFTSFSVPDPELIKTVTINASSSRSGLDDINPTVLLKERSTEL

RAW264.7 [11] = test: Cytotoxicity against mouse RAW264.7 cells assessed as reduction in cell survival at 10 uM incubated for 24 hrs by MTT assay; assay type: toxicity, cell-based; conditions: raw264.7, 24 h
RAW264.7 [12] = test: Anti-inflammatory activity in mouse RAW264.7 cells assessed as decrease in LPS-induced iNOS protein expression incubated for 24 hrs by Western blot analysis; assay type: functional, cell-based; conditions: dose 2-10 µM
[13] = target: T3, NF-kappa-B inhibitor alpha (Mus musculus) (UniProt Q9Z1E3); test: Inhibition of IkappaBalpha phosphorylation in LPS-stimulated mouse RAW264.7 cells preincubated with compound for 1 hrs followed by LPS-stimulation and measured after 30 mins by Western blot analysis; assay type: cell-based; conditions: dose 2-30 µM, time 1.5 hrs
T3 sequence (whole entry): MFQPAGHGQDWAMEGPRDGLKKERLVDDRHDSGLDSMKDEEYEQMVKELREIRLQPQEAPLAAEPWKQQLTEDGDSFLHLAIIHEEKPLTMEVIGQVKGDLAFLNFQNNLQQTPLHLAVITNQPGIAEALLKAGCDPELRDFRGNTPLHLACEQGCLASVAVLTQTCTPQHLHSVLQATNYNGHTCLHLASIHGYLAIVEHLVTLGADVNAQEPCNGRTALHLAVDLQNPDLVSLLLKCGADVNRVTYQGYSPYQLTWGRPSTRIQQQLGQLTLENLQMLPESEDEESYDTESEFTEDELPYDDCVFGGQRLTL

[14] = target: T4, Prostaglandin G/H synthase 2 (Ovis aries, UniProt P79208); test: Inhibition of ovine COX-2 assessed as reduction in PGF2alpha production by enzyme immunoassay
T4 sequence (P79208 whole entry): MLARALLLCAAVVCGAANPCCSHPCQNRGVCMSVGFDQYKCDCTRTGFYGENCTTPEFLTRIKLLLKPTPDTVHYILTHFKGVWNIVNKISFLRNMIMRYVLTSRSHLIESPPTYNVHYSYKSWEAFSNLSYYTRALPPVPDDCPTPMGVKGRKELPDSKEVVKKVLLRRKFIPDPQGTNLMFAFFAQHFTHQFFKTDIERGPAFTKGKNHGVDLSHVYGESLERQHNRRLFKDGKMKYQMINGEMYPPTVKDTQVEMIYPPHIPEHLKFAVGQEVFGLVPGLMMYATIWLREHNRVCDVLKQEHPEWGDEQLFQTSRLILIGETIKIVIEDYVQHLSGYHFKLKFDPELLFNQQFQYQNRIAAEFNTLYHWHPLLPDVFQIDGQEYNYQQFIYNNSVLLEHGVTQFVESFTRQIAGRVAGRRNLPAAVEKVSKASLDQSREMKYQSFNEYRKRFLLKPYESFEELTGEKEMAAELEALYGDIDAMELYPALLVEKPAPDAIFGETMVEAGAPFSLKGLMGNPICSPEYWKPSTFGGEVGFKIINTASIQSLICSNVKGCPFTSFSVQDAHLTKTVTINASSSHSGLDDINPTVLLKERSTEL

L02 [15] = test: Cytotoxicity against human L02 cells assessed as reduction in cell survival at 10 uM incubated for 24 hrs by MTT assay; assay type: toxicity, cell-based; conditions: l02, 24 h
RAW264.7 [16] = test: Anti-inflammatory activity in mouse RAW264.7 cells assessed as decrease in LPS-induced COX-2 protein expression incubated for 24 hrs by Western blot analysis; assay type: functional, cell-based; conditions: dose 2-10 µM
L929 [17] = test: Cytotoxicity against mouse L929 cells assessed as reduction in cell survival at 10 uM incubated for 24 hrs by MTT assay; assay type: toxicity, cell-based; conditions: l929, 24 h
L929 [18] = test: Cytotoxicity against mouse L929 cells assessed as reduction in cell survival upto 50 uM incubated for 48 to 72 hrs by MTT assay; assay type: toxicity, cell-based; conditions: l929, 50 µM, time 48-72 hrs
RAW264.7 [19] = test: Anti-inflammatory activity in mouse RAW264.7 cells assessed as decrease in LPS-induced NO production incubated for 24 hrs by Griess reagent based assay; assay type: functional, cell-based; conditions: dose 2-30 µM
[20] = target: T5, Prostaglandin G/H synthase 2 (Mus musculus) (UniProt Q05769); test: Inhibition of COX-2 in mouse RAW264.7 cells assessed as suppression of LPS-induced PGE2 production at 2 to 30 uM incubated for 24 hrs by ELISA analysis; assay type: cell-based; conditions: dose 2-30 µM
T5 sequence (whole entry): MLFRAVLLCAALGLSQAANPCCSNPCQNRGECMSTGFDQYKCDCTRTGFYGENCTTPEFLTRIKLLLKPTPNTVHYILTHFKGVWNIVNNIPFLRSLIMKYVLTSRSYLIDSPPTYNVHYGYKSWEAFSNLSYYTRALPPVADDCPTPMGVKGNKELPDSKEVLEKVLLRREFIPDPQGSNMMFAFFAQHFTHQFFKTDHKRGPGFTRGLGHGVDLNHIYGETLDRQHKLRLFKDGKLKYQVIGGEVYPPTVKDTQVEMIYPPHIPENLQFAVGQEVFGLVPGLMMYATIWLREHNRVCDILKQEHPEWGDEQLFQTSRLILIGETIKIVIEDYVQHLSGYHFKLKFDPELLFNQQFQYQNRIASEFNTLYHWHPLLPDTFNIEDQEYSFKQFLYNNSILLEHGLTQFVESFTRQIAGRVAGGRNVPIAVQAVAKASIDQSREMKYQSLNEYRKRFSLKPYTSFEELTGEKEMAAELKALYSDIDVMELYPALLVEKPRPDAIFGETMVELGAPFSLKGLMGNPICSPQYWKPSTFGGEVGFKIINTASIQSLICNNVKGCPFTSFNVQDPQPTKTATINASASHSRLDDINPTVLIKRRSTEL

[21] = target: T6, Prostaglandin G/H synthase 2 (Homo sapiens) (UniProt P35354); test: Inhibition of recombinant human COX-2 using arachidonic acid as substrate at 10 uM preincubated with compound for 5 mins followed by substrate addition and measured after 2 mins by fluorescence spectrum analysis; conditions: time 7.0 min
T6 sequence (whole entry): T2 sequence (P35354 whole entry)

[22] = target: T7, Prostaglandin G/H synthase 1 (Ovis aries) (UniProt P05979); test: Inhibition of ovine COX-1 using arachidonic acid as substrate at 10 uM preincubated with compound for 5 mins followed by substrate addition and measured after 2 mins by fluorescence spectrum analysis; conditions: time 7.0 min
T7 sequence (whole entry): T1 sequence (P05979 whole entry)

CCOC(=O)[C@H](CO)NC(=O)c1cccc(O)c1O
inhibition (RAW264.7 [1]): Dose-Dependent Effect
Activity (RAW264.7 [2]): inactive
inhibition (RAW264.7 [3]): Active
Activity (RAW264.7 [4]): Dose-Dependent Effect
Activity (RAW264.7 [5]): Toxic
Activity (RAW264.7 [6]): Dose-Dependent Effect
Activity (RAW264.7 [7]): Dose-Dependent Effect
IC50 [8]: 8.89 µM
Activity (L02 [9]): Toxic
IC50 [10]: 2.22 µM
Activity (RAW264.7 [11]): Non-Toxic
Activity (RAW264.7 [12]): Dose-Dependent Effect
inhibition [13]: Dose-Dependent Effect
IC50 [14]: 2.8 µM
Activity (L02 [15]): Non-Toxic
Activity (RAW264.7 [16]): Dose-Dependent Effect
Activity (L929 [17]): Non-Toxic
Activity (L929 [18]): Toxic
Activity (RAW264.7 [19]): Dose-Dependent Effect
inhibition [20]: Active

CCOC(=O)[C@H](CO)NC(=O)c1ccc(O)cc1
inhibition [21]: Active
inhibition [22]: Active

CCOC(=O)[C@H](CO)NC(=O)c1cccc(O)c1
inhibition [21]: Active
inhibition [22]: Active

CCOC(=O)[C@H](CO)NC(=O)c1ccccc1
inhibition [21]: Active
inhibition [22]: Active

CCOC(=O)[C@H](CO)NC(=O)c1ccccc1O
inhibition [21]: Active
inhibition [22]: Active
